Experiment [1] relates to B6 SOD1 Tg mice. The experiment is described as follows: COP-1 immunization of B6 SOD1 Tg mice.
Experiment [2] relates to MES23.5 cells. The experiment is described as follows: Cathepsin B inhibition and neurotoxicity, microglial supernatants on MES23.5 cells. To be noted: inhibitor 1 μM, N-α-syn 100 nM. The class given is cell-based. On the procedure:
MES 23.5 cells were cultured in 75-cm^2 flasks in DMEM/F12 with 15 mM HEPES (Invitrogen) containing N2 supplement (Invitrogen), 100 U/ml of penicillin, 100 μg/ml streptomycin, and 5% FBS. MES23.5 cells is a cell line derived using somatic cell fusion of rat embryonic mesencephalon cells and the murine neuroblastoma-glioma cell line N18TG2 that produce dopamine and express tyrosine hydroxylase (Crawford et al. (1992) J. Neuroscience 12:3392-3398). Cells were grown to 80% confluence then plated at a density of 10×10^4 cells on sterile glass coverslips. Microglia were plated in 6 well plates and incubated for 1 hour with or without 1 μM of cathepsin B inhibitors, CA-074 [cell impermeable] or CA-074 Me [cell permeable] (Sigma), in a 37° C., 5% CO2 incubator to inhibit residual cathepsin B expression (Gan et al. (2004) J. Biol. Chem., 279:5565-5572). […] MES 23.5 cell viability was assessed using the Live/Dead cytotoxicity assay (Invitrogen) as previously described. Live cells were distinguished by the uptake of calcein AM to acquire a green fluorescence [excitation/emission (ex/em) 495/515 nm], while dead cells acquired a red fluorescence (ex/em 495/635 nm) due to the uptake of ethidium homodimer-1 (EthD-1). Cell enumerations were performed using fluorescence microscopy (200× magnification, n=6 wells per group, 3 frames per well).

Turning to glatiramer acetate [COP-1], the “increase of mean age of survival compared to PBS controls” value amounted to 6.1% in experiment [1] (75 μg s.c. every other week) and 9.9% in experiment [1] (75 μg s.c. weekly).
Turning to `CCCNC(=O)[C@H]1O[C@@H]1C(=O)N[C@H](C(=O)N1CCC[C@H]1C(=O)O)[C@@H](C)CC` [CA-074], the “protection of DA cells v. N-α-syn alone” value in experiment [2] was found to be 53%.

The values above are taken from patent US9782464B2, “Methods and compositions for inhibiting diseases of the central nervous system” (Board of Regents of the University of Nebraska, priority 2008, dated 2017).
